Laboratory results: patent US7067508B2, “Diaminedithiol derivatives and radiorhenium or radiotechnetium complex thereof; a liver cancer-treating composition comprising the radiorhenium complex and lipiodol; and a kit for preparation of the liver cancer-treating composition” (Seoul National University Industry Foundation, priority 2001, dated 2006)

Experiment: Biodistribution of 188Re-labelled compounds in lipiodol solution in mice after tail vein injection
Format: in vivo
Details: mice (ICR)
Description: To the ^188Re-labelled reaction mixture prepared in the foregoing Examples 4 to 6, lipiodol (5 ml) was added, mixed well and the solution was centrifuged at 3000 rpm for 10 min. The supernatant was removed and 2 ml saline was added. After mixing well, the resulting solution was centrifuged again at 3000 rpm for 10 min and the supernatant was removed to recover a lower phase of lipiodol.
Mice (ICR) were administered with an injection of ^188Re-labelled compound in lipiodol solution which was prepared in the Example 7 via the tail vein. Radioactivity distributed in tissues and weight of each tissue were measured to calculate the percentage of radioactivity per gram of unit tissue relative to total radioactivity administered.
As radiation accumulation mechanism in the lung and the liver cancer are similar, it is convenient to detect the level of radiation accumulating in the lung of a mouse suffering from liver cancer. […] Therefore, it can be inferred that a radiorhenium complex of a diaminedithiol derivative having a long side chain is effective for treating liver cancer.

For `CCCCCCCC[N+]12CC[N]3CC(C)(C)[S][188Re-]31(=[O])[S]C(C)(C)C2` (centres unmarked) [^188Re-OTDD], the “Biodistribution, radioactivity in Blood” value (10 min post-injection) was 5.2 ± 1.8 percentage of radioactivity per gram, the “Biodistribution, radioactivity in Fat” value (10 min post-injection) was 3.6 ± 0.7 percentage of radioactivity per gram and the “Biodistribution, radioactivity in Heart” value (10 min post-injection) was 6.3 ± 1.7 percentage of radioactivity per gram. For the same compound, the “Biodistribution, radioactivity in Kidney” value (10 min post-injection) was 8.0 ± 1.2 percentage of radioactivity per gram, the “Biodistribution, radioactivity in Liver” value (10 min post-injection) was 15.1 ± 2.4 percentage of radioactivity per gram and the “Biodistribution, radioactivity in Lung” value (10 min post-injection) was 138.4 ± 19.8 percentage of radioactivity per gram. For the same compound, the “Biodistribution, radioactivity in Muscle” value (10 min post-injection) was 1.5 ± 0.2 percentage of radioactivity per gram, the “Biodistribution, radioactivity in Small intestine” value (10 min post-injection) was 3.6 ± 0.3 percentage of radioactivity per gram and the “Biodistribution, radioactivity in Spleen” value (10 min post-injection) was 2.6 ± 0.3 percentage of radioactivity per gram. The “Biodistribution, radioactivity in Stomach” value (shortened to “Biodistribution … in Stomach”) (10 min post-injection) was 3.5 ± 1.3 percentage of radioactivity per gram, the “Biodistribution, radioactivity in Blood” value (30 min post-injection) was 3.8 ± 0.4 percentage of radioactivity per gram and the “Biodistribution, radioactivity in Fat” value (30 min post-injection) was 2.2 ± 0.2 percentage of radioactivity per gram. The “Biodistribution, radioactivity in Heart” value (30 min post-injection) was 4.4 ± 0.3 percentage of radioactivity per gram, the “Biodistribution, radioactivity in Kidney” value (30 min post-injection) was 6.6 ± 0.3 percentage of radioactivity per gram and the “Biodistribution, radioactivity in Liver” value (30 min post-injection) was 21.6 ± 4.9 percentage of radioactivity per gram. The “Biodistribution, radioactivity in Lung” value (30 min post-injection) was 97.4 ± 20.7 percentage of radioactivity per gram, the “Biodistribution, radioactivity in Muscle” value (30 min post-injection) was 1.2 ± 0.2 percentage of radioactivity per gram and the “Biodistribution, radioactivity in Small intestine” value (30 min post-injection) was 8.0 ± 2.0 percentage of radioactivity per gram. The “Biodistribution, radioactivity in Spleen” value (30 min post-injection) was 2.3 ± 0.1 percentage of radioactivity per gram, the “Biodistribution … in Stomach” value (30 min post-injection) was 12.9 ± 6.6 percentage of radioactivity per gram and the “Biodistribution, radioactivity in Blood” value (1 hr post-injection) was 3.1 ± 0.5 percentage of radioactivity per gram. For the same compound, the “Biodistribution, radioactivity in Fat” value (1 hr post-injection) was 1.6 ± 0.4 percentage of radioactivity per gram, the “Biodistribution, radioactivity in Heart” value (1 hr post-injection) was 2.7 ± 1.0 percentage of radioactivity per gram and the “Biodistribution, radioactivity in Kidney” value (1 hr post-injection) was 5.6 ± 0.9 percentage of radioactivity per gram. The “Biodistribution, radioactivity in Liver” value (1 hr post-injection) was 20.1 ± 3.3 percentage of radioactivity per gram, the “Biodistribution, radioactivity in Lung” value (1 hr post-injection) was 87.0 ± 13.2 percentage of radioactivity per gram and the “Biodistribution, radioactivity in Muscle” value (1 hr post-injection) was 0.9 ± 0.2 percentage of radioactivity per gram. For the same compound, the “Biodistribution, radioactivity in Small intestine” value (1 hr post-injection) was 13.0 ± 3.7 percentage of radioactivity per gram, the “Biodistribution, radioactivity in Spleen” value (1 hr post-injection) was 1.9 ± 0.6 percentage of radioactivity per gram and the “Biodistribution … in Stomach” value (1 hr post-injection) was 11.1 ± 3.1 percentage of radioactivity per gram. The “Biodistribution, radioactivity in Blood” value (3 hr post-injection) was 2.8 ± 0.3 percentage of radioactivity per gram, the “Biodistribution, radioactivity in Fat” value (3 hr post-injection) was 1.3 ± 0.4 percentage of radioactivity per gram and the “Biodistribution, radioactivity in Heart” value (3 hr post-injection) was 1.9 ± 0.4 percentage of radioactivity per gram. For the same compound, the “Biodistribution, radioactivity in Kidney” value (3 hr post-injection) was 4.0 ± 0.5 percentage of radioactivity per gram, the “Biodistribution, radioactivity in Liver” value (3 hr post-injection) was 19.7 ± 6.7 percentage of radioactivity per gram and the “Biodistribution, radioactivity in Lung” value (3 hr post-injection) was 61.6 ± 10.0 percentage of radioactivity per gram. For the same compound, the “Biodistribution, radioactivity in Muscle” value (3 hr post-injection) was 0.5 ± 0.1 percentage of radioactivity per gram, the “Biodistribution, radioactivity in Small intestine” value (3 hr post-injection) was 23.4 ± 0.3 percentage of radioactivity per gram and the “Biodistribution, radioactivity in Spleen” value (3 hr post-injection) was 1.8 ± 0.3 percentage of radioactivity per gram. For the same compound, the “Biodistribution … in Stomach” value (3 hr post-injection) was 15.5 ± 6.6 percentage of radioactivity per gram, the “Biodistribution, radioactivity in Blood” value (24 hr post-injection) was 0.6 ± 0.0 percentage of radioactivity per gram and the “Biodistribution, radioactivity in Fat” value (24 hr post-injection) was 0.4 ± 0.1 percentage of radioactivity per gram. For the same compound, the “Biodistribution, radioactivity in Heart” value (24 hr post-injection) was 0.7 ± 0.1 percentage of radioactivity per gram, the “Biodistribution, radioactivity in Kidney” value (24 hr post-injection) was 1.5 ± 0.4 percentage of radioactivity per gram and the “Biodistribution, radioactivity in Liver” value (24 hr post-injection) was 7.3 ± 1.5 percentage of radioactivity per gram. The “Biodistribution, radioactivity in Lung” value (24 hr post-injection) was 22.8 ± 3.3 percentage of radioactivity per gram, the “Biodistribution, radioactivity in Muscle” value (24 hr post-injection) was 0.2 ± 0.0 percentage of radioactivity per gram and the “Biodistribution, radioactivity in Small intestine” value (24 hr post-injection) was 19.8 ± 12.0 percentage of radioactivity per gram. The “Biodistribution, radioactivity in Spleen” value (24 hr post-injection) was 2.0 ± 2.0 percentage of radioactivity per gram and the “Biodistribution … in Stomach” value (24 hr post-injection) was 3.6 ± 1.8 percentage of radioactivity per gram.
